This passage reports solubility and retest date results from patent US20110086096A1, “MODIFIED RELEASE 1- [ (3-HYDROXY-ADAMANT-1-YLAMINO)-ACETYL] -PYRROLIDINE-2 (S) -CARBONITRILE FORMULATION” (priority 2005, published 2011).

A short description of series [1]: Water solubility of drug substance. In kind it is physicochemical. The conditions noted are these: heading: water solubility. An excerpt: A once a day MR dosage form is likely to require a significant level of polymer load for retarding drug diffusion. During the development, the applicant has selected monolithic formulation with low risk for dose dumping, eliminating coating technologies in favor of a matrix formulation. After intensive studies on compatibility, ability to retard diffusion pharmacokinetic and pharmacodynamic studies, and regulatory acceptance requirements the applicant narrowed the polymer choice to hydrophilic polymers, especially hydroxpropyl methyl cellulose (HPMC).

Series [2] is described as follows: Drug substance and tablet retest date. It counts as physicochemical. The conditions noted are these: drug substance, storage at 25° C. On the procedure: The vildagliptin drug substance (DS) is sensitive to moisture. Very tight packaging is necessary. Current retest date is 30 months with storage at 25° C.
For the CSF 100 mg, 150 mg and 200 mg strengths, the stability data are available up to 12 months at 25° C./60% RH and 30° 60% RH. […] The composition of vildagliptin 150 mg modified release tablets is bracketed by 100 mg and 200 mg strengths. Therefore, the stability of 150 mg tablets is expected to be same as 100 mg and 200 mg strengths. Thus a re-test period similar to that of 100 and 200 mg strengths is applied for 150 mg tablets.

By solubility is commonly meant the concentration that dissolves in the medium under given conditions. Lower therefore signals little dissolved substance. In the case of `N#C[C@@H]1CCCN1C(=O)CNC12CC3CC(CC(O)(C3)C1)C2` [vildagliptin, 1-[(3-Hydroxy-adamant-1-ylamino)-acetyl]-pyrrolidine-2(S)-carbonitrile], the solubility in series [1] was greater than 125 mg/mL. This compound had a retest date in series [2] of 30 months.
